The values below come from US12214036B2, “Combination therapy comprising AXL/MER and PD-1/PD-L1 inhibitors” (Incyte Corporation, priority 2020, dated 2025).

Each structure is given as a SMILES string.

The test addresses T1, MER (Homo sapiens, UniProt Q12866).
T1 sequence (Q12866 21-999): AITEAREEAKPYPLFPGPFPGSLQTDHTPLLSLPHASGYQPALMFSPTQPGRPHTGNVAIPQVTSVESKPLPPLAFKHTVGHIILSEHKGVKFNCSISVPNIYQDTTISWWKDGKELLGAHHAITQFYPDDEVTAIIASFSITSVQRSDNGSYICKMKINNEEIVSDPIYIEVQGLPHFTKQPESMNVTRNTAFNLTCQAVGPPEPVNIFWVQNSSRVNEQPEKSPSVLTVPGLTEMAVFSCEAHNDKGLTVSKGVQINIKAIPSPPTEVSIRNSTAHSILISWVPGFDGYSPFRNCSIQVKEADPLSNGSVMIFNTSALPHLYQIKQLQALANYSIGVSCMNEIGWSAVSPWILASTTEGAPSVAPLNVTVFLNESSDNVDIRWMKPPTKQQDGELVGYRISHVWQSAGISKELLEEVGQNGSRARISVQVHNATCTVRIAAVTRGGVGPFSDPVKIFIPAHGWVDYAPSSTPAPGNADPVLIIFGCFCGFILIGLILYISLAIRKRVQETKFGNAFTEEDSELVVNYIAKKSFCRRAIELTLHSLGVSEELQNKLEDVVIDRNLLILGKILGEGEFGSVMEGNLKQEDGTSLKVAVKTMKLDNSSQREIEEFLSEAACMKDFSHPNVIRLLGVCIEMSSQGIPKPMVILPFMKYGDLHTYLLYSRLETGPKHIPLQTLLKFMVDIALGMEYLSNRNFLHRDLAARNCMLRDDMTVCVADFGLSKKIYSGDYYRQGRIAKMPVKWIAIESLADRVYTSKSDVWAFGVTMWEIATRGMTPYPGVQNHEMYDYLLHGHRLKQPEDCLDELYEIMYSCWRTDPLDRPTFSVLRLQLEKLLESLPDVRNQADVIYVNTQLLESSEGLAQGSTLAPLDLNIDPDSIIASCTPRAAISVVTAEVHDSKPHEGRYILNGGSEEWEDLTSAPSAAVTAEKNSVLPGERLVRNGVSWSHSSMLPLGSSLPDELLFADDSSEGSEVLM
Put plainly: Inhibition of MER kinase activity in primary macrophages (Western blot). It counts as cell-based. Conditions: primary macrophages from human PBMCs, 2 hours pretreatment, MAB8912 stimulation, N=2 (FIG. 4); read-out: IC50, pMER inhibition. As for the experimental part: The ability of Compound 1 to modulate the activity of MER kinase in macrophages was evaluated.
Human peripheral blood mononuclear cells (PBMCs) were separated using Ficoll-Paque density gradient centrifugation and any remaining red blood cells (RBC) were lysed using 1×RBC Lysis Buffer (Cell Signaling Technology) for 5 minutes at room temperature. The PBMCs were washed with PBS before being enriched for monocytes using CD14 microbeads positive selection separation following the manufacturer's protocol as specified (AutoMacs Pro, Miltenyi Biotec, Bergisch Gladbach, Germany). […]
Macrophages were allowed to thaw on ice before being lysed with 250 μL/well of 1× Lysis Buffer (Cell Signaling Technology; #9803) and Halt protease and phosphatase inhibitors (ThermoFisher Scientific) for 1 hour at 4° C. […] Protein lysates were quantified using BCA Protein Assay Kit (Pierce, ThermoFisher Scientific; #23225). […] The membranes were washed again before the bands were detected with SuperSignal West Dura Extended Duration Chemiluminescent substrate (ThermoFisher Scientific) and were visualized using the Fluorochem M Digital Imager (Protein Simple, San Jose, Calif.).
(In general: Immunoblotting shows a protein as a band on a membrane.)

On to `CC(C)C(=O)N1CCC(c2cc(-c3ccc(NC(=O)c4cn(C(C)C)c(=O)n(-c5ccccn5)c4=O)cc3)c3c(N)ncnn23)CC1` [Compound 1, N-(4-(4-Amino-7-(1-isobutyrylpiperidin-4-yl)pyrrolo[1,2-f][1,2,4]triazin-5-yl)phenyl)-1-isopropyl-2,4-dioxo-3-(pyridin-2-yl)-1,2,3,4-tetrahydropyrimidine-5-carboxamide], for which the IC50 – broadly, the concentration at which inhibition is half-maximal – was 1.6 ± 0.4 nM.
